Reference: patent US10487046B1, “Dihydroxytyrosol hexamethylene-1,6-dicarbamate having antioxidant activity and a method of preparing the same” (SHAANXI UNIVERSITY OF SCIENCE AND TECHNOLOGY, priority 2019, dated 2019)

Assay: DPPH Radical Scavenging Activity Assay
Type: biochemical
Conditions: for Scavenging Activity (%) (n = 3): DPPH 0.2×10^−4 mol/L in methanol, 30 minutes, 517 nm
Source text: DPPH Radical Scavenging Activity Assay 2,2-Diphenyl-1-picryl hydrazyl (DPPH) is an organic compound composed of a stable organic radical. In the DPPH molecule, due to the presence of multiple electron-withdrawing —NO2 and large it bonds of the benzene ring, nitrogen free radical is stabilized. Its methanol solution is purple and has a maximum absorption peak at 517 nm. After the addition of an antioxidant, DPPH captures an electron to be paired with the free electron, and the purple fades and turns into a yellow substance. The absorption at 517 nm disappears, and the degree of fading is quantitatively related to the number of electrons it captures. Based on this principle, a spectrophotometer is used to detect the change of the absorbance of the DPPH radical and the sample solution, and the ability of the sample to provide hydrogen atoms and scavenge free radicals can be measured. (a) Preparation of DPPH solution: measuring exact amount of 2,2-diphenyl-1-picryl hydrazyl (DPPH) and dissolving in methanol to prepare a 0.2×10^−4 mol/L DPPH solution, stored at 0° C. in dark. (b) Preparation of sample solutions: Vc (vitamin C, positive control), dihydroxytyrosol hexamethylene-1,6-dicarbamate, and hydroxytyrosol (control) were dissolved in methanol and diluted in a concentration gradient. Measuring the scavenging activity of the sample solutions: 2 mL of the sample solutions (table 1) at each concentration gradient was taken, 2 mL 0.2×10^−4 mol/L DPPH solution was added, the mixture was mixed and reacted at room temperature in dark for 30 minutes, and methanol was then added to adjust final volume. The absorbance Ai was measured at 517 nm. 2 mL control solution and 2 mL methanol were mixed, and the absorbance Aj was measured. 2 mL DPPH solution and 2 mL methanol were mixed, and the absorbance Ao was measured. (d) The scavenging activity of the sample solution and control solutions is calculated according to the following calculation formula and shown in Table 3 and FIG. 3. Scavenging activity (%)=100×[1−(Ai−Aj)/Ao]

Compound	Scavenging Activity (%) (n = 3) (1.76 ppm)	Scavenging Activity (%) (n = 3) (8.80 ppm)	Scavenging Activity (%) (n = 3) (21.12 ppm)	Scavenging Activity (%) (n = 3) (42.24 ppm)	Scavenging Activity (%) (n = 3) (79.20 ppm)	Scavenging Activity (%) (n = 3) (112.64 ppm)	Scavenging Activity (%) (n = 3) (281.60 ppm)	Scavenging Activity (%) (n = 3) (492.80 ppm)	Scavenging Activity (%) (n = 3) (792.00 ppm)	Scavenging Activity (%) (n = 3) (915.20 ppm)	DPPH radical scavenging activity (in words) (1.76 to 915.20 ppm)	DPPH radical scavenging activity compared with hydroxytyrosol (B) (at same concentration)
OCCc1ccc(O)c(O)c1 [B, hydroxytyrosol]	8.69%	10.97%	18.10%	28.89%	41.44%	45.83%	60.58%	72.81%	76.35%	80.61%	–	–
O=C1O[C@H]([C@@H](O)CO)C(O)=C1O [Vc, Vitamin C]	21.35%	30.80%	87.03%	95.44%	96.06%	97.88%	98.41%	99.04%	99.42%	99.16%	–	–
O=C(NCCCCCCNC(=O)OCCc1ccc(O)c(O)c1)OCCc1ccc(O)c(O)c1 [A, dihydroxytyrosol hexamethylene-1,6-dicarbamate]	19.87%	23.68%	37.02%	68.43%	76.52%	86.33%	91.48%	95.31%	96.66%	97.14%	obvious DPPH radical scavenging activity in a concentration dependent manner	better DPPH radical scavenging activity than hydroxytyrosol (B)
